# Measured values taken from patent publication US20190030048A1, “CASEIN MICELLES FOR NANOENCAPSULATION OF HYDROPHOBIC COMPOUNDS” (TECHNION RESEARCH AND DEVELOPMENT FOUNDATION LTD., priority 2006, published 2019).
# Where “and” joins values, the source holds several entries; their conditions need not be identical. Equal values may be shown once. Read-outs that look alike come from different tables or passages of the source.
# Experiments:
# [1] = Analytical fractionation (centrifugation) and RP-HPLC determination of vitamin D2 content in micelle pellet and serum; type: physicochemical; settings: for recovered vitamin D2 found incorporated into the micelles (encapsulation efficiency): D2-rCM suspension
# Experimental: Micelle preparations were centrifuged at 20° C. and 25,000×g for one hour and the supernatant was separated from the pellet by decantation. The supernatant was then ultra-filtered using Amicon 8050 stirred ultrafiltration cell with a 10,000 Da nominal molecular weight limit membrane (Millipore). All fractions were collected and analyzed for vitamin D2 content.
# Each sample was then poured into a separatory funnel. […] After gentle mixing the phases were allowed to separate.
smiles,measurement,setting,value
"C=C1CC[C@H](O)C/C1=C/C=C1\CCC[C@]2(C)[C@@H]([C@H](C)/C=C/[C@H](C)C(C)C)CC[C@@H]12 [vitamin D2, Vitamin D2]",vitamin concentration in the micelle pellet compared to the supernatant (serum),[1]; CM prepared by ultra-high pressure homogenization,4-5 times
same,vitamin content of pellet,"[1]; CM prepared by ultra-high pressure homogenization, pellet",30.3±0.4 micrograms/mL
same,vitamin content of supernatant,"[1]; CM prepared by ultra-high pressure homogenization, supernatant",6.7±0.7 micrograms/mL
same,recovered vitamin D2 found incorporated into the micelles (encapsulation efficiency),[1]; more typically,45-60%
same,recovered vitamin D2 found incorporated into the micelles (encapsulation efficiency),[1]; overall range,25-75%
same,vitamin D2 concentration in the rCM,"[1]; D2-rCM, micelle pellet",44 to 57 µg/mL
same,vitamin D2 concentration in serum,"[1]; D2-rCM, serum",2 to 8 µg/mL
same,vitamin D2 concentration in the rCM relative to its concentration in serum,"[1]; D2-rCM, more typically",4-10 times and 5-10 times
same,"Percent of vitamin D2 remaining, micelle pellet",0 h,100%
same,"Percent of vitamin D2 remaining, UV exposed serum (control II)","serum, 0 h",100%
same,"Percent of vitamin D2 remaining, serum","serum, 0 h",100%
same,"Percent of vitamin D2 remaining, UV exposed serum (control II)","serum, 3 h",0.11%
